Data taken from patent publication US20240042019A1, “OPTIMIZED TLR7 LIGANDS AND USES THEREOF” (Genentech, Inc., priority 2021, published 2024).

Experiments:
recombinant RNase T2 = recombinant RNase T2 (Homo sapiens, UniProt O00584)
TLR7 [1] = molecular target: T1, TLR7 (Homo sapiens, UniProt Q9NYK1); assay: PBMC stimulation with p-L-arginine-complexed RNA ligands, IFN-α ELISA; assay type: cell-based
T1 construct: Peripheral blood mononuclear cells (PBMCs) were obtained from buffy coats from healthy adult donors; endogenous in cells; host or cells: primary human PBMCs from healthy donor buffy coats (TLR7 expressed by pDCs)
T1 sequence (Q9NYK1 27-1049): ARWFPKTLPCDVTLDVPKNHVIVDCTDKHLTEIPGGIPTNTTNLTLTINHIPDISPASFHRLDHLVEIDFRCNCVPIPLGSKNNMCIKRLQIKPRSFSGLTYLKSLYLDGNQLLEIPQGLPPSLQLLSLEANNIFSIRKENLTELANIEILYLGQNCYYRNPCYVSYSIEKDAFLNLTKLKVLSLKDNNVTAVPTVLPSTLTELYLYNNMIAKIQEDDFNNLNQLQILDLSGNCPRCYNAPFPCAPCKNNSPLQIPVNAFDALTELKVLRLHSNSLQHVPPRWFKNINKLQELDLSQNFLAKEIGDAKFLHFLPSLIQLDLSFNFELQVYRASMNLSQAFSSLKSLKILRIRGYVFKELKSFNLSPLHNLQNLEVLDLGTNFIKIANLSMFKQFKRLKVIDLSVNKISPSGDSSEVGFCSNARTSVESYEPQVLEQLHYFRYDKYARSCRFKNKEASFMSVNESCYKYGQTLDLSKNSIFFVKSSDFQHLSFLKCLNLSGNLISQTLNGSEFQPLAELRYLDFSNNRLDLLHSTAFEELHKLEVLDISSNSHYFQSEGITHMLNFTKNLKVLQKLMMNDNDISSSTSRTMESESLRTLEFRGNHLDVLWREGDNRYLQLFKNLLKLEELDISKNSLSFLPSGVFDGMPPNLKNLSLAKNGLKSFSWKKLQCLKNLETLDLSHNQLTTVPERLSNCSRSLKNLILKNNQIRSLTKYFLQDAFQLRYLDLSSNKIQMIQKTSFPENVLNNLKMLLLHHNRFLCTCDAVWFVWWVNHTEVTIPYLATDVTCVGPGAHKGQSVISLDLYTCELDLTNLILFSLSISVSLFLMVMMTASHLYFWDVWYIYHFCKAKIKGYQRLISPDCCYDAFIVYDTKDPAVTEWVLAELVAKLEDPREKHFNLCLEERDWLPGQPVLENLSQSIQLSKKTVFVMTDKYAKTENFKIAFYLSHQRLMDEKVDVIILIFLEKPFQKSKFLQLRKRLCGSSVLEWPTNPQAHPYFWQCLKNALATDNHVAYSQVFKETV
Description: Peripheral blood mononuclear cells (PBMCs) were obtained from buffy coats from healthy adult donors. Buffy coat samples were first diluted with an equal volume of phosphate-buffered saline (PBS). Next, PBMCs were isolated via density gradient centrifugation with Lymphoprep density gradient media ([…] Technologies) and SepMate-50 tubes ([…] Technologies). Samples were centrifuged at 1000 g for 15 minutes. After centrifugation, the upper layers were collected by pouring into a new tube, diluted with PBS, and centrifuged at 450×g for 5 minutes. To lyse red blood cells, cell pellets were resuspended with 10 mL Ammonium-Chloride-Potassium (ACK) Lysis Buffer and incubated for 8 minutes at room temperature. After lysis, cells were washed with PBS and passed through two 70 μm cell strainers. Viable cell counts were determined with a Vi-CELL cell counter (Beckman Coulter). […] Guanosine was added between about 20 and about 30 minutes before the addition of poly-[…])-complexed RNA. […] After mixing by pipetting up and down, the reaction was incubated for 10 minutes, pipetted up and down again, and then added to the cells. In some experiments, RNA ligands were used at a final concentration of 0.6 μg/ml. Where indicated as “+2'3' cGMP”, 2'3' cyclic GMP purchased from eMolecules was complexed together with the RNA ligands. The final concentration of 2'3' cyclic GMP was 5 μg/ml. p-L-arginine was adjusted accordingly to keep the mass ratio of nucleic acid:p-L-arginine constant. Cell culture supernatants were collected 15-18 hours after stimulation and stored at -80° C. Cytokines in cell culture supernatants were detected with the BD OptEIA human TNF ELISA Set (BD Biosciences), and either Invitrogen IFN alpha Human Matched Antibody Pair kit (Thermo Fisher Scientific) or Human IFN Alpha Multi-Subtype ELISA Kit (PBL Assay Science). To test the effects of the RNA ligands described in Example 1 on TLR7 and TLR8 activation, PBMCs were stimulated with the RNA ligands using p-L-arginine complex delivery, delivery with DOTAP, or delivery without a carrier. Activity of TLR7 and TLR8 was assessed based on measurements of IFN-α or TNF-α by enzyme-linked immunosorbent assays (ELISA). In this setting, as depicted in FIG. 6, IFN-α induced by small RNAs is derived from TLR7 expressed by pDCs, or from RIG-I expressed by monocytes. In contrast, TNF-α secretion is derived from monocytes and serves as an indication of TLR8 activation. As shown in this figure, the p-L-arginine delivery restricts most of the activation to TLRs. First, the effects of the RNA ligands on TLR7 and TLR8 activation using p-L-arginine complex delivery were tested.

TLR7 [2] = molecular target: T1, TLR7; assay: PBMC stimulation with DOTAP-complexed RNA ligands, IFN-α ELISA; assay type: cell-based
TLR8 = molecular target: T2, TLR8 (Homo sapiens, UniProt Q9NR97); assay: PBMC stimulation with DOTAP-complexed RNA ligands, TNF-α ELISA; assay type: cell-based
T2 construct: Peripheral blood mononuclear cells (PBMCs) were obtained from buffy coats from healthy adult donors; endogenous in cells; host or cells: primary human PBMCs from healthy donor buffy coats (TLR8 in monocytes)
T2 sequence (Q9NR97 27-1041): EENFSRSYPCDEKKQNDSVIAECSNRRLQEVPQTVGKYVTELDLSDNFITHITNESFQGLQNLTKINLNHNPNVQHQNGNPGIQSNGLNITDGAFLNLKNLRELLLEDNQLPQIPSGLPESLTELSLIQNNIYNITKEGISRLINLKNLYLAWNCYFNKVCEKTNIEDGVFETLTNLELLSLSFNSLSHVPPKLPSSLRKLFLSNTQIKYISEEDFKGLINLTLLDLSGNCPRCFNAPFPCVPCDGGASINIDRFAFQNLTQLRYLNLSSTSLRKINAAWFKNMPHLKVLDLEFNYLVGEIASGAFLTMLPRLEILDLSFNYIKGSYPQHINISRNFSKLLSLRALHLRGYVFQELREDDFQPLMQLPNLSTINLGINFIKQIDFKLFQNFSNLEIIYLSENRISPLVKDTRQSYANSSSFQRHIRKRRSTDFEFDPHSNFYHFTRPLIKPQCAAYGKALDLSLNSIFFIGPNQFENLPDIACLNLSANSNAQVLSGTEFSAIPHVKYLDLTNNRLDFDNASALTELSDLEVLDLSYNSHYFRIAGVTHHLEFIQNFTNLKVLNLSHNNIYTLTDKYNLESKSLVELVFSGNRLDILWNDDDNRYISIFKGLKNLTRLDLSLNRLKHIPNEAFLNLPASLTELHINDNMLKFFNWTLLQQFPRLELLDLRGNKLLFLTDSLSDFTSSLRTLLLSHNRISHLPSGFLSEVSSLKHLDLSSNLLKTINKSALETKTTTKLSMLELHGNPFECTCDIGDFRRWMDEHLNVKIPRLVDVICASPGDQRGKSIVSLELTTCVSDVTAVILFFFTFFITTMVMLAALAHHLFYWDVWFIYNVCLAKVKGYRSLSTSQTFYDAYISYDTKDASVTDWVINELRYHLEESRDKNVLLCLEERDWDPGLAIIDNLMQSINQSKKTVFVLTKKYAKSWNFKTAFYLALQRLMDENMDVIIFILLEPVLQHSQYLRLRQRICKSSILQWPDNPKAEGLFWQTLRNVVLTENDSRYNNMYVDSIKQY

pDC-depleted PBMCs = assay: IFN-α secretion by pDC-depleted PBMCs versus PBMCs; assay type: cell-based, human; conditions: Lipofectamine-mediated transfection, pDC-depleted PBMCs vs PBMCs (FIG. 8)
Description: Peripheral blood mononuclear cells (PBMCs) were obtained from buffy coats from healthy adult donors. Buffy coat samples were first diluted with an equal volume of phosphate-buffered saline (PBS). Next, PBMCs were isolated via density gradient centrifugation with Lymphoprep density gradient media ([…] Technologies) and SepMate-50 tubes ([…] Technologies). Samples were centrifuged at 1000 g for 15 minutes. After centrifugation, the upper layers were collected by pouring into a new tube, diluted with PBS, and centrifuged at 450×g for 5 minutes. To lyse red blood cells, cell pellets were resuspended with 10 mL Ammonium-Chloride-Potassium (ACK) Lysis Buffer and incubated for 8 minutes at room temperature. After lysis, cells were washed with PBS and passed through two 70 μm cell strainers. Viable cell counts were determined with a Vi-CELL cell counter (Beckman Coulter). […]
Cell culture supernatants were collected 15-18 hours after stimulation and stored at −80° C. Cytokines in cell culture supernatants were detected with the BD OptEIA human TNF ELISA Set (BD Biosciences), and either Invitrogen IFN alpha Human Matched Antibody Pair kit (Thermo Fisher Scientific) or Human IFN Alpha Multi-Subtype ELISA Kit (PBL Assay Science). […]

recombinant RNase T2, sequence (O00584 25-256, species assumed): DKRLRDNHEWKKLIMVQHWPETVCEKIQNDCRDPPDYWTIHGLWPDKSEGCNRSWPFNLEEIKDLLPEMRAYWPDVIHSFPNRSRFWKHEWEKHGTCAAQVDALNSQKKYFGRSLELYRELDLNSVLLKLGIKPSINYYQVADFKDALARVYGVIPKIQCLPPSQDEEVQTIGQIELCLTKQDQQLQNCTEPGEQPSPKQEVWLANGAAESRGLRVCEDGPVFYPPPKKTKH

| Substance | Degradation of full RNA ligand by RNase T2 (recombinant RNase T2) | IFN-α secretion (TLR7 activity) (TLR7 [1]) | IFN-α secretion (TLR7 activity) (TLR7 [2]) | TNF-α secretion (TLR8 activity) (TLR8) | IFN-α secretion after pDC depletion (pDC-depleted PBMCs) |
| --- | --- | --- | --- | --- | --- |
| CCUUCUUCUUCUUCUUCUUC (CCUUCUUCUUCUUCUUCUUC; all phosphodiester, sugars by position not given here) [ORN7009, reference compound] | degraded more quickly | no or only minor IFN-α secretion | activated TLR8 rather than TLR7 | activated TLR8 |  |
| GGGACGCUGACCCAGAAGAUCACUAGAAAUAGUAGAUCUUCUGGGUCAGCGUCCC (GGGACGCUGACCCAGAAGAUCACUAGAAAUAGUAGAUCUUCUGGGUCAGCGUCCC; RNA, phosphodiester; in vitro transcribed, further chemistry not given here) [IVT4, in vitro transcribed control, RIG-I ligand 3P-RNA] |  |  |  |  | maintained after pDC depletion |
